In patent publication US9938261B2, “Heterocyclic compounds and methods of use thereof” (AMBIT BIOSCIENCES CORPORATION, priority 2011, dated 2018):

Tests used:
CSF1R [1] = target: T1, CSF1R (Homo sapiens, UniProt P07333); test: Competition binding assay, CSF1R Kd; set-up: made in house; conditions: competition binding
In short: (§1)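 Read-out is quantitative PCR of kinase recovered from affinity beads after competition with test compound. Binding reached equilibrium over 1 hour at room temperature; Kd values come from eleven-point threefold serial dilutions.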

KIT = target: T2, KIT (Homo sapiens, UniProt P10721); test: Competition binding assay, KIT Kd; conditions: competition binding
T2 construct: made in house
T2 sequence (P10721 26-976): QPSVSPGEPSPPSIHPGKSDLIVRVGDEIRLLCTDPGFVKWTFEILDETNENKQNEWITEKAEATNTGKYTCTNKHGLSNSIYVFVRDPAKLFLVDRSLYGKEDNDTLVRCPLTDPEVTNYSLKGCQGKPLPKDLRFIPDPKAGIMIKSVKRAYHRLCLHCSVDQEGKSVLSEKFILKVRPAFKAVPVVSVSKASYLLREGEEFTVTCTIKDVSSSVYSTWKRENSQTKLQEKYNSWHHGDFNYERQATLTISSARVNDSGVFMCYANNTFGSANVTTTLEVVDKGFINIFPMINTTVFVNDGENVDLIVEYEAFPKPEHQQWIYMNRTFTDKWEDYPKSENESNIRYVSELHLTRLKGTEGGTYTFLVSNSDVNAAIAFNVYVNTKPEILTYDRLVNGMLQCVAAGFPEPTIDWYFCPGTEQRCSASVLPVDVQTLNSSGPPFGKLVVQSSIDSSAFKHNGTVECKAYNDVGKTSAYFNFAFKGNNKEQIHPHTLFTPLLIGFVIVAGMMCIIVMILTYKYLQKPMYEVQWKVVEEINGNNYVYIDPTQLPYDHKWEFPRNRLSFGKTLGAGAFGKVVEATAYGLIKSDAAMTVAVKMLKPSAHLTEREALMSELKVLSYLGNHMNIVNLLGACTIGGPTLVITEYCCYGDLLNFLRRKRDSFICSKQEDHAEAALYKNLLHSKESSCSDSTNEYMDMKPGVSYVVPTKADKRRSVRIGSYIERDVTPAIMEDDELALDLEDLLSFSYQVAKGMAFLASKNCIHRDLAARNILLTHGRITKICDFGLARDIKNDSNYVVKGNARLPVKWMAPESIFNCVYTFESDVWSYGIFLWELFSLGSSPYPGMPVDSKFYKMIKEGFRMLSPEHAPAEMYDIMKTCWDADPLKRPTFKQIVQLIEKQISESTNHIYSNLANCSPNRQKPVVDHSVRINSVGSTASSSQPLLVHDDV
In short: as §1

M-NFS-60 cells = test: M-NFS-60 cell proliferation assay (Alamar Blue); format: cell-based, mouse; conditions: Mus musculus; M-NFS-60 cell proliferation; read-out: CSF1R M-NFS-60 CTB:IC50
In short: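 Alamar Blue reduction (3 h; 560/590 nm) measured viability after 72 h, 37 °C treatment with nine half-log compound concentrations at 0.5% DMSO. Cells: M-CSF-dependent (20 ng/mL) murine M-NFS-60 in RPMI plus 10% FBS. IC50s, averaged from duplicates, reflect half-maximal inhibition of proliferation relative to control.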

CSF1R [2] = target: T1, CSF1R; test: HEK293 CSF1R phosphorylation MSD assay; format: cell-based; set-up: expressed in transfected cells; host or cells: HEK293; conditions: HEK293 cells, M-CSF stimulated CSF1R phosphorylation, MSD; read-out: HEK293 pCSF1R M-CSF MSD:IC50
In short: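 Ligand-induced CSF1R autophosphorylation was measured by MSD sandwich assay: CSF1R-FKBP from lysates captured via FK506, anti-phosphotyrosine readout. Cells were exposed to compound for 2 h (9-point, half-log, 0.5% DMSO) before 5 min 50 ng/mL M-CSF. Reported IC50 is the mean of duplicate-plate IC50s relative to DMSO control.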

PDGFRβ = target: T3, PDGFRβ (Homo sapiens, UniProt P09619); test: Competition binding assay, PDGFRβ Kd; conditions: competition binding
T3 construct: made in house
T3 sequence (P09619 33-1106): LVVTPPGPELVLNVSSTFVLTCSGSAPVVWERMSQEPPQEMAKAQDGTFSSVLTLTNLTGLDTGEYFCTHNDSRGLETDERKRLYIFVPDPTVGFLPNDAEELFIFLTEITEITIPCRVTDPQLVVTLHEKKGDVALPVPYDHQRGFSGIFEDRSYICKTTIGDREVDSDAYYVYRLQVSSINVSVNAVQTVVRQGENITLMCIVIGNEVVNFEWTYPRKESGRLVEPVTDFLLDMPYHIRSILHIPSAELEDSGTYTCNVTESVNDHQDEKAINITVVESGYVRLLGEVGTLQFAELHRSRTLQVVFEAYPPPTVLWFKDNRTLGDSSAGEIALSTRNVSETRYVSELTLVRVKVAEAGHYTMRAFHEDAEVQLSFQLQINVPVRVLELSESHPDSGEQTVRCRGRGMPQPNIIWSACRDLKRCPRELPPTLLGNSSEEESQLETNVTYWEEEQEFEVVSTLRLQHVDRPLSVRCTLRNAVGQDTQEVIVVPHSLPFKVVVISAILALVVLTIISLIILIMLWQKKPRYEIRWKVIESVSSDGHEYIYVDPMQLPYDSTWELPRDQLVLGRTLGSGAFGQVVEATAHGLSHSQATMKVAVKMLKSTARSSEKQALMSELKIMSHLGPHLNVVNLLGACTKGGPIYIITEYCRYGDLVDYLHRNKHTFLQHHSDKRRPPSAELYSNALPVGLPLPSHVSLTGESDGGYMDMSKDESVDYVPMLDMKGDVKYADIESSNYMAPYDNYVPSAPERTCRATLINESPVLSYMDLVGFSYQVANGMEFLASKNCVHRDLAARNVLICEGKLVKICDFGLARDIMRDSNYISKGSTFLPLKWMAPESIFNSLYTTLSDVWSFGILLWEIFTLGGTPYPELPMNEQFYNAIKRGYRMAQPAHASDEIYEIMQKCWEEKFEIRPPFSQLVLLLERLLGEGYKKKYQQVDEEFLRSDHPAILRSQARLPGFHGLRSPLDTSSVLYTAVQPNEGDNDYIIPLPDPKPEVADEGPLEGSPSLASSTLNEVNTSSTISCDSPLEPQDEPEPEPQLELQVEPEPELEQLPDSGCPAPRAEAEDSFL
In short: as §1

T1 sequence (P07333 20-972): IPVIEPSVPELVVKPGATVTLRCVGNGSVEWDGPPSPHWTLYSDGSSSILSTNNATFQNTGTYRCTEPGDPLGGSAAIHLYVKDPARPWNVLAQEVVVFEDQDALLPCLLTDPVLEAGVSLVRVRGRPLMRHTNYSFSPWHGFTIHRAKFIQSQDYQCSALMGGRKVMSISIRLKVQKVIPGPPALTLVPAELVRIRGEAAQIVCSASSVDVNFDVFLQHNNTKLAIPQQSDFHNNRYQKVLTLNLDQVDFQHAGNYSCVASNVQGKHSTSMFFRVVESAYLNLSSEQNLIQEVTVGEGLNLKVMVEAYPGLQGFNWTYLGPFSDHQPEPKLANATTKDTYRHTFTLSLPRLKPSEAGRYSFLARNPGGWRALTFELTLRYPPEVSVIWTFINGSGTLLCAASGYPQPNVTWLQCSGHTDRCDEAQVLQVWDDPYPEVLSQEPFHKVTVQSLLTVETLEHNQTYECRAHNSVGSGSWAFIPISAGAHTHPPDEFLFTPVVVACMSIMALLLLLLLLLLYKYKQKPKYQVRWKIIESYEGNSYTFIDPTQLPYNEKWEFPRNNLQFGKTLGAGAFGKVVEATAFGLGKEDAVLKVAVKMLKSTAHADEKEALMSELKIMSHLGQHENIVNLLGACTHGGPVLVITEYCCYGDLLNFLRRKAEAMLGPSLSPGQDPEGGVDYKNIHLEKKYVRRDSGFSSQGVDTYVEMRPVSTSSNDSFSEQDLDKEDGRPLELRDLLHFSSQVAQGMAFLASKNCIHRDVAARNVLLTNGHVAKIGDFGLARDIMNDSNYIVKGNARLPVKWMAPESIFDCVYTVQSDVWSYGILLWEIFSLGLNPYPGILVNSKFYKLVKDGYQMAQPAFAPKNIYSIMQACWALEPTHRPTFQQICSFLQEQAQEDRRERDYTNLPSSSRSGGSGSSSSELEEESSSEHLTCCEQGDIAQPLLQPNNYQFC

Kd (CSF1R [1]) | Kd (KIT) | IC50 (CSF1R [2]) | Kd (PDGFRβ) | SMILES | IC50 (M-NFS-60 cells)
5 to 20 nM | 100 to 500 nM | 200 to 500 nM | ≤ 50 nM | O[C@@H]1CCCC[C@H]1Nc1nc2ccc(Cn3cnc4cc(C(F)(F)F)ccc43)cc2s1 [Example 130, (1R,2R)-2-((6-((5-(trifluoromethyl)-1H-benzo[d]imidazol-1-yl)methyl)benzo[d]thiazol-2-yl)amino)cyclohexanol] | 50 to 400 nM
5 to 20 nM | 100 to 500 nM | 50 to 200 nM | 50 to 500 nM | Cn1nnc(-c2ccc3c(c2)ncn3Cc2ccc3nc(N[C@@H]4CCC[C@@H](O)[C@H]4O)sc3c2)n1 [Example 236, (1R,2S,3R)-3-((6-((5-(2-methyl-2H-tetrazol-5-yl)-1H-benzo[d]imidazol-1-yl)methyl)benzo[d]thiazol-2-yl)amino)cyclohexane-1,2-diol] | 50 to 400 nM
≤ 5 nM | ≤ 100 nM | ≤ 50 nM | ≤ 50 nM | O[C@@H]1CCCC[C@H]1Nc1nc2ccc(Cc3cnc4cccnn34)cc2s1 [Example 131, (1R,2R)-2-((6-(imidazo[1,2-b]pyridazin-3-ylmethyl)benzo[d]thiazol-2-yl)amino)cyclohexanol] | ≤ 50 nM
5 to 20 nM | 500 to 2000 nM | ≤ 50 nM | 50 to 500 nM | COCCOc1ccn2c(Cc3ccc4nc(N[C@@H]5CCCC[C@H]5O)sc4c3)cnc2c1 [Example 153, (1R,2R)-2-((6-((7-(2-methoxyethoxy)imidazo[1,2-a]pyridin-3-yl)methyl)benzo[d]thiazol-2-yl)amino)cyclohexanol] | 50 to 400 nM
5 to 20 nM | 500 to 2000 nM | 50 to 200 nM | 500 to 2000 nM | N#Cc1ccc2ncn(Cc3ccc4nc(N[C@@H]5CCCC[C@H]5O)sc4c3)c2c1 [Example 111, 1-((2-(((1R,2R)-2-hydroxycyclohexyl)amino)benzo[d]thiazol-6-yl)methyl)-1H-benzo[d]imidazole-6-carbonitrile] | 50 to 400 nM
5 to 20 nM | ≤ 100 nM | 50 to 200 nM | ≤ 50 nM | Cc1cc2ncn(Cc3ccc4nc(N[C@@H]5CCCC[C@H]5O)sc4c3)c2cc1C [Example 119, (1R,2R)-2-((6-((5,6-dimethyl-1H-benzo[d]imidazol-1-yl)methyl)benzo[d]thiazol-2-yl)amino)cyclohexanol] | 50 to 400 nM
≤ 5 nM | ≤ 100 nM | ≤ 50 nM | ≤ 50 nM | O[C@@H]1[C@H](O)CCC[C@H]1Nc1nc2ccc(Cn3cnc4cc(OC5COC5)ccc43)cc2s1 [Example 233, (1R,2S,3R)-3-((6-((5-(oxetan-3-yloxy)-1H-benzo[d]imidazol-1-yl)methyl)benzo[d]thiazol-2-yl)amino)cyclohexane-1,2-diol] | 50 to 400 nM
5 to 20 nM | > 2000 nM | 200 to 500 nM | 500 to 2000 nM | O[C@@H]1CCCC[C@H]1Nc1nc2c(Cl)cc(Cc3cnc4ccc(N5CCOCC5)nn34)cc2s1 [Example 156, (1R,2R)-2-((4-chloro-6-((6-morpholinoimidazo[1,2-b]pyridazin-3-yl)methyl)benzo[d]thiazol-2-yl)amino)cyclohexanol] | 400 to 1500 nM
≤ 5 nM | 100 to 500 nM | 50 to 200 nM | 50 to 500 nM | OCc1ccc2ncc(Cc3ccc4nc(N[C@@H]5CCCC[C@H]5O)sc4c3)n2n1 [Example 144, (1R,2R)-2-((6-((6-(hydroxymethyl)imidazo[1,2-b]pyridazin-3-yl)methyl)benzo[d]thiazol-2-yl)amino)cyclohexanol] | 50 to 400 nM
5 to 20 nM | > 2000 nM | > 500 nM | 500 to 2000 nM | O[C@@H]1CCCC[C@H]1Nc1nc2ccc(Cn3cnc4cccnc43)c(F)c2s1 [Example 164, (1R,2R)-2-((6-((3H-imidazo[4,5-b]pyridin-3-yl)methyl)-7-fluorobenzo[d]thiazol-2-yl)amino)cyclohexanol] | 400 to 1500 nM
5 to 20 nM | ≤ 100 nM | ≤ 50 nM | ≤ 50 nM | O[C@@H]1CCCC[C@H]1Nc1nc2ccc(Cn3cnc4cc(I)cnc43)cc2s1 [Example 146, (1R,2R)-2-((6-((6-iodo-3H-imidazo[4,5-b]pyridin-3-yl)methyl)benzo[d]thiazol-2-yl)amino)cyclohexanol] | 50 to 400 nM
5 to 20 nM | 100 to 500 nM | 50 to 200 nM | ≤ 50 nM | OC[C@@H]1CCCC[C@H]1Nc1nc2ccc(Cn3cnc4cc(Br)cnc43)cc2s1 [Example 133, ((1R,2R)-2-((6-((6-bromo-3H-imidazo[4,5-b]pyridin-3-yl)methyl)benzo[d]thiazol-2-yl)amino)cyclohexyl)methanol] | 50 to 400 nM
5 to 20 nM | 100 to 500 nM | 50 to 200 nM | 50 to 500 nM | CNC(=O)c1ccc2c(c1)ncn2Cc1ccc2nc(N[C@@H]3CCCC[C@H]3O)sc2c1 [Example 173, 1-((2-(((1R,2R)-2-hydroxycyclohexyl)amino)benzo[d]thiazol-6-yl)methyl)-N-methyl-1H-benzo[d]imidazole-5-carboxamide] | 50 to 400 nM
≤ 5 nM | ≤ 100 nM | 50 to 200 nM | ≤ 50 nM | O[C@@H]1CCCC[C@H]1Nc1nc2ccc(Cn3cnc4cc(F)cnc43)cc2o1 [Example 132, (1R,2R)-2-((6-((6-fluoro-3H-imidazo[4,5-b]pyridin-3-yl)methyl)benzo[d]oxazol-2-yl)amino)cyclohexanol] | 50 to 400 nM
5 to 20 nM | 100 to 500 nM | 50 to 200 nM | 50 to 500 nM | O=C(c1ccn2c(Cc3ccc4nc(N[C@@H]5CCCC[C@H]5O)sc4c3)cnc2c1)N1CCCC1 [Example 223, (3-((2-(((1R,2R)-2-hydroxycyclohexyl)amino)benzo[d]thiazol-6-yl)methyl)imidazo[1,2-a]pyridin-7-yl)(pyrrolidin-1-yl)methanone] | 50 to 400 nM
≤ 5 nM | ≤ 100 nM | ≤ 50 nM | ≤ 50 nM | O[C@@H]1CCCC[C@H]1Nc1nc2ccc(Cn3cnc4cc(-n5cccn5)cnc43)cc2s1 [Example 141, (1R,2R)-2-((6-((6-(1H-pyrazol-1-yl)-3H-imidazo[4,5-b]pyridine-3-yl)methyl)benzo[d]thiazol-2-yl)amino)cyclohexanol] | ≤ 50 nM
5 to 20 nM | ≤ 100 nM | 50 to 200 nM | ≤ 50 nM | COc1nc2c(cc1Br)ncn2Cc1ccc2nc(N[C@@H]3CCCC[C@H]3O)sc2c1 [Example 123, (1R,2R)-2-((6-((6-bromo-5-methoxy-3H-imidazo[4,5-b]pyridin-3-yl)methyl)benzo[d]thiazol-2-yl)amino)cyclohexanol] | 50 to 400 nM
5 to 20 nM | 500 to 2000 nM | 200 to 500 nM | 50 to 500 nM | N#Cc1cnc2c(c1)ncn2Cc1ccc2nc(N[C@@H]3CCCC[C@H]3CO)sc2c1 [Example 140, 3-((2-(((1R,2R)-2-(hydroxymethyl)cyclohexyl)amino)benzo[d]thiazol-6-yl)methyl)-3H-imidazo[4,5-b]pyridine-6-carbonitrile] | 400 to 1500 nM
20 to 50 nM | 100 to 500 nM | > 500 nM | – | O[C@@H]1CCCC[C@H]1Nc1nc2ccc(Cn3cnc4cncnc43)cc2o1 [Example 118, (1R,2R)-2-((6-((9H-purin-9-yl)methyl)benzo[d]oxazol-2-yl)amino)cyclohexanol] | 400 to 1500 nM
